From US20020048271A1, “Methods and composition for restoring conformational stability of a protein of the p53 family” (priority 1998, published 2002)

tested on: mutant mouse p53; test: not given; conditions: Brown et al., 1997; cited from earlier work

SMILES | Concentration restoring nuclear localization of mutant mouse p53
OCC(O)CO [Glycerol] | 600 mM

tested on: mutant p53 (position 173 or position 249) in Saos-2 cells; test: WAF1 and p53 expression, Western blot, Saos-2 cells with transfected mutant p53; type: cell-based; conditions: position 173 or 249 mutant; Compound X for 16 hours
Method: WAF1 and p53 Expression. […] Protein concentrations were determined using Bradford reagent (BioRad) and 5 or 10 ug of cell lysate were loaded onto 8-16 percent gradient polyacrylamide/SDS gels (Novex). […] The blots were washed for one hour in three changes of Tris buffered saline with 0.1 percent Tween 20, before the addition of the secondary antibody, HRP-conjugated anti-mouse IgG. The bands were visualized using Renaissance ECL (DuPont) and exposure to Hyperfilm ECL (Amersham Life Science).

SMILES | WAF1 expression in Saos-2 cells with mutant p53
COc1cccc2c1C(=O)c1c(O)c3c(c(O)c1C2=O)C[C@@](O)(C(=O)CO)C[C@@H]3O[C@H]1C[C@H](N)[C@H](O)[C@H](C)O1 [Adriamycin] | did not induce WAF-1 expression

target: T1, wild-type p53 DBD (Homo sapiens, UniProt P04637); test: p53 DBD thermostabilization assay (ELISA for mAb1620 epitope); type: biochemical; conditions: 0.5 ng of p53 DBD heated at 45° C. for 30 minutes; read-out: SC50: concentration of compound required to preserve 50% of the epitope for mAb 1620
T1 construct: Recombinant DBD (residues 94-312) from wild-tvpe and mutant p53 proteins; made in house
T1 sequence (P04637 94-312): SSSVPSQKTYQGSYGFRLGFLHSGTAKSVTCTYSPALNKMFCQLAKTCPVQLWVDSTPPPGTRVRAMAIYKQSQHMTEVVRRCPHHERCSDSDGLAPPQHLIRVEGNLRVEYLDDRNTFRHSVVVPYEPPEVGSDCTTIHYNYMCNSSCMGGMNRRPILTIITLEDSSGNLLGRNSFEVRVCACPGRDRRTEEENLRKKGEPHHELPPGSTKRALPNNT
Method: Thermostabilization Assay. Recombinant DBD (residues 94-312) from wild-tvpe and mutant p53 proteins and FLAG-tagged p53 DBD were prepared as described (Pavletich et al., 1993, Genes and Dev. 7, 2556-2564; Bullock et al., 1997, supra.). Mutant proteins used were 143A, 173A, 175S. 249S, and 273H. A number of small molecule organic compounds were tested. Compound stocks were dissolved in DMSO at 10 mg/ml and diluted prior to use. The proteins (0.25-1.0 ng/well) were diluted in a buffer containing 25 mM HEPES, pH 6.8, 150 mM KCl, 10 mM dithiothreitol and attached in 50 ul to Reacti-Bind microtiter plates (Pierce) for 35 minutes on ice. The wells were rinsed with 25 mM HEPES, pH 6.8, 150 mM KCl, compound or diluted DMSO vehicle added, and the plates incubated at the indicated temperatures. Incubation was terminated by placing the wells on ice; ELISA assays performed while maintaining the plates on ice in order to avoid further alterations of the epitopes. Wells were blocked for 1 hour with cold 5 percent skim milk (Difco) in HEPES/KCl buffer prior to addition of the primary antibodies. Monoclonal antibodies mAb1620, mAb240 (Calbiochem) and anti-FLAG M2 antibody (Eastman Kodak Company) were diluted at 1:100-1:250 in HEPES/KCl and added at 100 ul/well for 30 minutes. The plates were rinsed twice with cold HEPES/KCl buffer and incubated with horseradish peroxidase (HRP)-conjugated anti-mouse IgG (Boehringer Mannheim) for another 30 minutes. The HRP signal was developed using TMB developer (Pierce) and the optical density of the signal was read on a BioRad microplate reader set at 450 nm.

SMILES | EC50
C(=C\c1nc(N2CCOCC2)c2ccccc2n1)/c1ccccc1 [Compound 1B] | > 300 µM
C(=C\c1nc(NCCCN2CCOCC2)c2ccccc2n1)/c1ccccc1 [Compound 1A] | 36 µM

The remaining lines, values ahead:

EC50 | SMILES
120 µM | CCN(CC)CCCCNc1c2ccccc2cc2ncccc12 [Compound 3B]
> 300 µM | CN(C)CCCN1c2ccccc2Sc2ccccc21 [Compound 4B]
38 µM | CC(CN(C)C)CN1c2ccccc2Sc2ccccc21 (stereo not shown) [Compound 4A]
> 300 µM | c1ccc2c(NCCN3CCOCC3)c3cccnc3cc2c1 [Compound 2B]
120 µM | c1ccc2c(NCCCN3CCOCC3)c3cccnc3cc2c1 [Compound 2A]
50 µM | CCN(CC)CCCNc1c2ccccc2cc2ncccc12 [Compound 3A]
